# Assay: Dissolution rate into the solvent
# Assay type: physicochemical
# Conditions: compared with α-type:β-type in a range of 98:2 to 85:15
structure (smiles),measurement,value
"O=c1n(CC2CO2)c(=O)n(CC2CO2)c(=O)n1CC1CO1 (stereo not shown) [Tris-(2,3-epoxypropyl)-isocyanurate]",dissolution rate for dissolution into the solvent,slower

# From patent US12077636B2 (NISSAN CHEMICAL CORPORATION, priority 2013, dated 2024)
